Laboratory results reported in patent publication EP0987025A1, “Pharmaceitical composition or composition package containing a pyrimidine nucleoside analogue and a purine nucleoside analogue” (priority 1998, dated 2000).
Read-outs that look alike come from different tables or passages of the source.

Legend:
LP-BM5 = format: in vivo, C57BL/6 mice; details: at 10 weeks after infection
Excerpt: LP-BM5 virus was provided by Robert Yetter (Veternas Administration Hospital, Baltimore, MD) and was maintained in a persistently infected SC- 1 cell line as described (Hosier D.E., Yetter R.A., Morse H.C. III, "Functional T lymphocytes are required for a murine retrovirus induced immunodeficiency disease (MAIDS)", J. Exp. Med. 1987; 165:1737-42). C57BL/6 female mice were purchased from Nossan, Milan, Italy and were used at 5 weeks of age. Animals were infected by means of two successive intraperitoneal injections at 24-hr intervals. In the experiments reported three different virus preparations were used.
Mice were housed at 22±1°C with a 12-hr light-dark cycle, 60±5% humidity, and 12 air changes/hr.
First, the efficacy of 2-fluoro-ara-AMP (F-araAMP, Fludara) in inhibiting murine AIDS (MAIDS), a disease characterized by a lymphoproliferative disorder (lymphadenopathy and splenomegaly), associated with severe immunodeficiency and hypergammaglobulinemia, was evaluated. The disease develops in some strains of mice (C57BL/6) that are infected with a murine leukemia virus mixture termed LP-BM5. In the first preliminary experiments (after about 4 months from infection) LP-BMS infected animals were treated with three different concentrations of F-ara-AMP: 0.065 mg/mouse, 0.325 mg/mouse, 0.650 mg/mouse. The animals of each group were treated intraperitoneally for 3 days a week and for 3 weeks. At the end of the treatment animals were killed and splenomegaly, lymphadenopathy and hypergammaglobulinemia were evaluated.
Infected mice after 7 weeks from infection were treated intraperitoneally with Fludara as follows: • 1. 0.65 mg/mouse once a day for 4 days a week (total dose 7.8 mg/mouse); • 2. 0.65 mg/mouse twice a day for 5 days a week (total dose 19.5 mg/mouse); • 3. […]

BM5d proviral DNA = experiment: PCR analysis of BM5d proviral DNA in spleen, lymph node and bone marrow; format: in vivo, C57BL/6 mice; details: at 10 weeks after infection
Excerpt: The following oligonucleotide primers were used for the amplification of a 141-bp gag gene of defective virus genome (BM5d); 5' primer, 5'-AACCTTCCTCCTCTGCCA-3' (sense) corresponding to nucleotides 1456-1473 and 3' primer, 5'-ACCACCTCTCGGGCTTTC-3' (antisense) corresponding to nucleotides 1579-1596 of the BM5d genome (Chat topadhyay SK, Sengupta D.N., FredricksonT.N., Morse H.C. III, Hartley J.W., "Characteristics and contributions of defective, ecotropic and mink cell focus-inducing viruses in a retrovirus induced immunodeficiency syndrome of mice.", J..Virol. 1991; 65: 4232-41.). A second pair or oligonucleotide primers was used for amplification of 203-bp of the mouse glucose-6-phosphate dehydrogenase (G6PD) gene. This amplification served as an internal control (endogenous standard) for evaluation of the relative BM5d proviral DNA. The nucleotide primers for the amplification were as follows: 5' primer, 5'-[…]-3' (sense) and 3' primer, 5'-[…]-3' (antisense) (Kurdi-Haidar B., Mason P.J., Berrebi A., et al., "Origin and spread of the glucose-6-phosphate dehydrogenase variant (G6PD-Mediterranean) in the Middle East.", Am. J. Hum. Genet. 1990; 47:1013-19.).
Probe D30, which was derived from the 137-bp Smal-Xhol p12 gag fragment of the defective virus genome (DU5H), was kindly provided by P. Jolicoeur (Montreal, Canada) (Aziz D.C., Hanna Z., Jolicoeur P., "Severe immunodeficiency disease induced by a defective murine leukemia virus.", Nature 1989; 338: 505-08).
Total cellular DNA was isolated from the spleens, lymph nodes and bone marrow of uninfected, infected and infected/treated mice by the sodium iodide isopropanol method.
PCR amplifications were performed in a 25 µl final volume using the Perkin Elmer GeneAMP kit (1 mM MgCl2, 2.5 U AmpliTag) with 0.3 µg total cellular DNA and 20 pmol of each primer.
PCR reaction were carried out for 37 cycles at 95°C for 30 sec, 58°C for 30 sec and 72°C for 30 sec with a final extension at 72°C for 10 min.
Products were analyzed by electrophoresis on agarose gel, blotted and hybridized with either the ^32P-labeled D30 or G6PD probe.
The intensity of radiolabeled bands was analyzed and quantified in a GS-250 Molecular Imager™ (Bio-Rad, Hercules, CA, USA). For BM5d proviral DNA detection the relative integration was determined by dividing the intensity of the BM5d bands by the intensity of G6PD bands (Fraternale A., Casabianca A., Rossi L., et al., "Inhibition of murine AIDS by combination of AZT and dideoxycytidine 5'-triphosphate.", J. Acquir. Imm. Def Syndr. and Hum. Retrovir. 1996; 12:164-73). The percentages of inhibition were referred to the infected mice.

[1] = Stability in drinking water; format: physicochemical; details: 0.25 mg/ml, room temperature, changed every 3 days
Procedure: AZT (Sigma) was administered ad libitum in the drinking water at a concentration of 0.25 mg/ml. AZT was stable in the drinking water at room temperature and was changed every 3 days.

[2] = treatment a: AZT 250 mg/l in drinking water for 6 weeks
[3] = treatment b: AZT 250 mg/l in drinking water for 10 weeks

For Cc1cn([C@H]2C[C@H](N=[N+]=[N-])[C@@H](CO)O2)c(=O)[nH]c1=O [AZT, 3'-Azido-3'-desoxythymidin], which “Lymph node w.” value (LP-BM5; [2]) is on record?
The value was 1.060 ± 0.240 g.

What about the “Spleen w.” value (LP-BM5; [2]) of the same compound?
The value was 0.520 ± 0.070 g.

What about the “Lymph node w.” value (LP-BM5; [3]) of the same compound?
The value was 0.550 ± 0.330 g.

What about the “Spleen w.” value (LP-BM5; [3]) of the same compound?
The value was 0.580 ± 0.150 g.

And the “bone marrow, BM5d proviral DNA copy number (E)” value (BM5d proviral DNA; [2])?
Its value is 28,500±3,535 Proviral DNA molecules per 0.3 µg of total cellular DNA.

What about the “bone marrow, inhibition of BM5d (% vs. Infected) (F)” value (BM5d proviral DNA; [2]) of the same compound?
Its value is 4.135±5.847%.

And the “lymph node, BM5d proviral DNA copy number (C)” value (BM5d proviral DNA; [2])?
Its value is 30,966±7,169 Proviral DNA molecules per 0.3 µg of total cellular DNA.

And the “lymph node, inhibition of BM5d (% vs. Infected) (D)” value (BM5d proviral DNA; [2])?
Its value is 85.89±3.26 %.

What about the “spleen, BM5d proviral DNA copy number (A)” value (BM5d proviral DNA; [2]) of the same compound?
Its value is 135,000±20,000 Proviral DNA molecules per 0.3 µg of total cellular DNA.

And the “spleen, inhibition of BM5d (% vs. Infected) (B)” value (BM5d proviral DNA; [2])?
The value was 15.14±9.60%.

What about the “bone marrow, BM5d proviral DNA copy number (E)” value (BM5d proviral DNA; [3]) of the same compound?
The value was 13,761±8,766 Proviral DNA molecules per 0.3 µg of total cellular DNA.

What about the “bone marrow, inhibition of BM5d (% vs. Infected) (F)” value (BM5d proviral DNA; [3]) of the same compound?
The value was 51.51±30.83 %.

And the “spleen, BM5d proviral DNA copy number (A)” value (BM5d proviral DNA; [3])?
The value was 39,669±19,026 Proviral DNA molecules per 0.3 µg of total cellular DNA.

What about the “spleen, inhibition of BM5d (% vs. Infected) (B)” value (BM5d proviral DNA; [3]) of the same compound?
Its value is 73.30±12.53 %.

What about the “stability in the drinking water” value [1] of the same compound?
The value was “stable”.
